Results as given in US7374901B2, “Method of analyzing coenzyme Q-10 and two-electron reduction product thereof and analysis system” (Shiseido Company Ltd., priority 2002, dated 2008).

Tests used:
[1] = Storage stability of methanol/hexane extraction liquid, conventional pretreatment (FIG. 3); assay type: physicochemical; conditions: various storage temperatures (FIG. 3)
Procedure: In this case, since the measurement is influenced by a water-soluble antioxidation substance in the specimen, such as vitamin C and uric acid, etc., a pretreatment is performed for subjecting the specimen to an extraction treatment with methanol/hexane so as to distribute the water-soluble antioxidation substance into a methanol phase and the coenzyme Q-10, etc., into a hexane phase.
It is therefore necessary to perform analysis immediately after the extraction of the specimen. […] Herein, each temperature indicates a storage temperature of the hexane extraction liquid in FIG. 3.

[2] = Storage stability of isopropyl alcohol extracted liquid from human blood plasma (FIG. 5); assay type: physicochemical; conditions: isopropyl alcohol extract of human blood plasma, stored at around 4° C., even after at least 11 hours
Procedure: 50 μl of human blood plasma as a specimen is sampled (S-1 in FIG. 4), 950 μl of isopropyl alcohol is added into it (S-2 in FIG. 4), and then they are mixed sufficiently. Subsequently, they are subjected to a centrifugal separator at a rotational speed of 12,000 rpm for 3 minutes and at a temperature of 4° C. Thus, coenzyme Q-10 and a 2-electron reduced form thereof are extracted from the specimen into an isopropyl alcohol phase (S-3 in FIG. 4).
When an extracted liquid into which the coenzyme Q-10, etc., has been extracted is stored at a temperature around 4° C. […] Thus, the alteration of a stored analytical sample can be prevented. Additionally, the longitudinal axis in regard to coenzyme Q-10 in FIG. 5(b) represents the ratio (molar-ratio) of the coenzyme Q-10 occupied in the total quantity of the coenzyme Q-10 and the 2-electron reduced form thereof.

Row | stability / oxidation in the hexane extraction liquid after pretreatment until injection into HPLC [1] | oxidation of the 2-electron reduced form during storage of the extracted liquid [2] | SMILES
1 | oxidized at a substantial rate | rarely oxidized | COc1c(O)c(C)c(C/C=C(\C)CC/C=C(\C)CC/C=C(\C)CC/C=C(\C)CC/C=C(\C)CC/C=C(\C)CC/C=C(\C)CC/C=C(\C)CC/C=C(\C)CCC=C(C)C)c(O)c1OC [2-electron reduced form of coenzyme Q-10]
2 | chemically unstable | – | COC1=C(OC)C(=O)C(C/C=C(\C)CC/C=C(\C)CC/C=C(\C)CC/C=C(\C)CC/C=C(\C)CC/C=C(\C)CC/C=C(\C)CC/C=C(\C)CC/C=C(\C)CCC=C(C)C)=C(C)C1=O [coenzyme Q-10, 2,3-dimethoxy-5-methyl-6-polyprenyl-1,4-benzoquinone]
